How the values were obtained:
Format in all cases: cell-based
[1] = tested on: hepatocellular carcinoma cell line; assay: Anti-proliferation activity in the presence of a ferroptosis inhibitor; conditions: in the presence of ferrostatin-1 (1 μM); read-out: Inhibition of Cell Proliferation EC50, Ferrostatin-1
Description: (§1) The activity of a test compound was determined in a cell proliferation assay using the hepatocellular carcinoma cell line […]. Cells (4,000 cells per well) were seeded in a 96-well tissue culture plate. After incubated overnight, a test compound was added at predetermined concentrations, starting with 10 μM and followed by 3-fold serial dilution. After the cells were incubated for 24 h, cell viability was determined using a CELL-TITER GLO® assay. The CELL-TITER GLO® reagent (50 μL) was added to each well and the luminescence was measured by a multimode microplate reader after a brief period of shaking. EC50 values were determined for the test compound. The results are summarized in Table 1, wherein A represents a value no greater than 100 nM, B represents a value greater than 100 nM but no greater than 500 nM, C represents a value greater than 500 nM but no greater than 2 μM, D represents a value greater than 2 μM but no greater than 10 μM; and E represents a value greater than 10 μM.
(§2) The anti-proliferation activity of compound 80 was tested in the presence of an ferroptosis inhibitor, ferrostatin-1 (1 μM) or liproxstatin-1 (1 μM).

[2] = tested on: hepatocellular carcinoma cell line Hub-7; assay: as above
Description: as §1, §2

[3] = tested on: hepatocellular carcinoma cell line Hub-7; assay: Cell proliferation assay (CELL-TITER GLO cell viability); conditions: Hub-7 cells, 24 h incubation
Method in brief: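 […] cells (4,000/well) seeded overnight, then exposed 24 h to compound from 10 μM in 3-fold serial dilutions. Viability read by CELL-TITER GLO luminescence; EC50 values derived.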

[4] = 24 h, read-out: Inhibition of Cell Proliferation EC50

| EC50 [3, 4] [nM] | Structure (SMILES) | other results |
| --- | --- | --- |
| > 10000 | Cn1ncc2cc(N(C(=O)C(F)F)C3(C(=O)NCc4ccccc4)CCOCC3)ccc21 [D1, N-Benzyl-4-(2,2-difluoro-N-(1-methyl-1H-indazol-5-yl)acetamido)tetrahydro-2H-pyran-4-carboxamide] |  |
| > 10000 | CC(=O)N(c1ccc2c(cnn2C)c1)C1(C(=O)NCc2ccccc2)CCCOC1 (centres unmarked) [D2, N-Benzyl-3-(N-(1-methyl-1H-indazol-5-yl)acetamido)tetrahydro-2H-pyran-3-carboxamide] |  |
| > 10000 | Cn1ncc2cc(N(C(=O)CO)C3(C(=O)NCc4ccccc4)CCOCC3)ccc21 [D3, N-Benzyl-4-(2-hydroxy-N-(1-methyl-1H-indazol-5-yl)acetamido)tetrahydro-2H-pyran-4-carboxamide] |  |
| > 10000 | CCC(=O)N(c1cccc(Cl)c1)C(C(=O)NCc1ccccc1)c1ccc(N)cc1 (centres unmarked) [D4, N-(1-(4-Aminophenyl)-2-(benzylamino)-2-oxoethyl)-N-(3-chlorophenyl)-propionamide] |  |
| > 10000 | Cn1ncc2cc(N(C(=O)CCCl)C3(C(=O)NCc4ccccc4)CCOCC3)ccc21 [D5, N-Benzyl-4-(3-chloro-N-(1-methyl-1H-indazol-5-yl)propanamido)tetrahydro-2H-pyran-4-carboxamide] |  |
| > 10000 | Cn1ncc2cc(N(C(=O)CCBr)C3(C(=O)NCc4ccccc4)CCOCC3)ccc21 [D6, N-Benzyl-4-(3-bromo-N-(1-methyl-1H-indazol-5-yl)propanamido)tetrahydro-2H-pyran-4-carboxamide] |  |
| > 10000 | N#CCC(=O)N(c1cccc(Cl)c1)C1(C(=O)NCc2ccccc2)CCOCC1 [D7, N-Benzyl-4-(N-(3-chlorophenyl)-2-cyanoacetamido)tetrahydro-2H-pyran-4-carboxamide] |  |

Second part, the molecule before the results:

| Structure (SMILES) | EC50 [3, 4] [nM] | other results |
| --- | --- | --- |
| C#CC(=O)N(c1cccc(Cl)c1)C1(C(=O)NCc2ccccc2)CCOCC1 [A80, N-Benzyl-4-(N-(3-chlorophenyl)propiolamido)tetrahydro-2H-pyran-4-carboxamide] | ≤ 100 | EC50 [1]: > 10000 nM; EC50 ([2]; in the presence of liproxstatin-1 (1 μM), read-out: Inhibition of Cell Proliferation EC50, Liproxstatin-1): > 10000 nM; EC50 ([2]; read-out: Inhibition of Cell Proliferation EC50, No Ferroptosis inhibitor): ≤ 100 nM |
| CC(Cl)C(=O)N(c1ccc2c(cnn2C)c1)C1(C(=O)NCc2ccccc2)CCOCC1 (centres unmarked) [C24, N-Benzyl-4-(2-chloro-N-(1-methyl-1H-indazol-5-yl)propanamido)tetrahydro-2H-pyran-4-carboxamide] | > 10000 |  |
| COc1ccc(N(C(=O)CCl)C2(C(=O)NCc3ccccc3)CCOCC2)cc1Cl [C25, N-Benzyl-4-(2-chloro-N-(3-chloro-4-methoxyphenyl)acetamido)tetrahydro-2H-pyran-4-carboxamide] | 100 to 500 |  |
| COc1ccc(N(C(=O)CCl)C2(C(=O)NCCc3ccccc3)CCOCC2)cc1Cl [C26, 4-(2-Chloro-N-(3-chloro-4-methoxyphenyl)acetamido)-N-phenethyltetrahydro-2H-pyran-4-carboxamide] | ≤ 100 |  |
| COc1ccc(N(C(=O)CCl)C2(C(=O)NCc3ccccc3)CCC(F)(F)CC2)cc1Cl [C27, N-Benzyl-1-(2-chloro-N-(3-chloro-4-methoxyphenyl)acetamido)-4,4-difluoro-cyclohexane-1-carboxamide] | ≤ 100 |  |
| O=C(CCl)N(c1cccc2nsnc12)C1(C(=O)NCc2ccccc2)CCOCC1 [C28, 4-(N-(Benzo[c][1,2,5]thiadiazol-4-yl)-2-chloroacetamido)-N-benzyltetrahydro-2H-pyran-4-carboxamide] | 100 to 500 |  |
| O=C(CCl)N(c1cccc2nsnc12)C1(C(=O)NCCc2ccccc2)CCOCC1 [C29, 4-(N-(Benzo[c][1,2,5]thiadiazol-4-yl)-2-chloroacetamido)-N-phenethyltetrahydro-2H-pyran-4-carboxamide] | 500 to 2000 |  |
| Cn1ncc2cc(N(C(=O)C3CO3)C3(C(=O)NCc4ccccc4)CCOCC3)ccc21 (centres unmarked) [C30, N-Benzyl-4-(N-(1-methyl-1H-indazol-5-yl)oxirane-2-carboxamido)tetrahydro-2H-pyran-4-carboxamide] | > 10000 |  |
| COc1ccc(N(C(=O)CCl)C(C(=O)NCCc2ccccc2)c2cccs2)cc1Cl (centres unmarked) [ML-162, reference compound] |  | EC50 ([3]; control, read-out: EC50): 138 nM; EC50 ([3]; read-out: Inhibition of Cell Proliferation EC50): 100 to 500 nM |

From US12516016B2, “GPX4 inhibitors, pharmaceutical compositions thereof, and their use for treating GPX4-mediated diseases” (EUBULUS BIOTHERAPEUTICS (HONG KONG) LIMITED, priority 2020, dated 2026)
